Values joined by “and” are separate entries in the source; they are usually repeats but may differ in a detail not shown here. Equal entries are not always repeated. Structures can show the parent of a compound that is named as a salt. Where two headings read alike, the source gives them in different places.
How the values were obtained:
[1] = system: patients with moderate to severe facial erythema associated with rosacea; type: in vivo; conditions: for Discontinued: Adverse Event: mITT
Procedure: An adverse event could therefore be any unfavorable and unintended sign (including an abnormal laboratory finding), symptom, or disease temporally associated with the use of a medicinal (investigational) product, whether or not related to the medicinal (investigational) product. In addition, during the screening period, adverse events were assessed regardless of the administration of a pharmaceutical product.
A clinical determination was made of the intensity of an adverse event. The severity assessment for a clinical adverse event was completed using the following definitions as guidelines:
A determination was made of the relationship (if any) between an adverse event and the study drug or study procedure, as applicable. A causal relationship was present if a determination was made that there was a reasonable possibility that the adverse event may have been caused by the drug or study procedure.
Adverse events were coded using preferred terms and primary System Organ Class (SOC) from the Medical Dictionary for Regulatory Activities (MedDRA), version 15.1. Adverse events were collected both for the screening/baseline period (which were referred to as pretreatment adverse events [PTAEs]) and for the study period after treatment was initiated (which were referred to as postbaseline adverse events; ie, adverse events with start date from study day 1 through study exit). A treatment emergent adverse event (TEAE) was defined a postbaseline adverse event where there was no PTAE of the same MedDRA preferred term or the maximum severity during the postbaseline period was more severe than the maximal severity of any PTAE of the same MedDRA preferred term.
For each preferred term, the incidence of TEAEs was presented and summarized on a per-patient basis as follows: • by preferred term in descending order of incidence rate • by primary SOC in alphabetical order, and preferred term • by primary SOC in alphabetical order, preferred term, and severity (maximum severity)
The maximum severity of a TEAE experienced by a patient was determined by the most severe rating recorded on the eCRF for the patient's given TEAE. The incidence of TEAEs was provided for all TEAEs regardless of causality and for treatment-related TEAEs.

[2] = system: patients with moderate to severe facial erythema associated with rosacea; test: Facial dermal tolerability assessment; type: in vivo, human
Procedure: Facial dermal tolerability assessment included the investigator's assessments (dryness and scaling of the treatment area) and the patient's assessments (stinging/burning and pruritus [itching] of skin in the application area) as described below:
Facial dermal tolerability assessment were evaluated by investigators and patients on days 1 (pre-dose, hours 1, 2, 4, 6, 8, 10, and 12), 2 (predose), 14 (predose, hours 1, 2, 4, 6, 8, 10, and 12), 28 (pre-dose, hours 1, 2, 4, 6, 8, 10, and 12), 35, and 56. Investigator's assessments included dryness and scaling and patient's assessment included stinging/burning, and pruritus; each had 4-point scales: 0=none, 1=mild, 2=moderate, 3=severe.
The number and percent of patients with at least a 1 severity increase (worsening) from baseline for 1 or more visits was generated by treatment group for day 1, day 14, day 28, and from day 1 through day 28. Raw values were summarized using shift tables and frequency distributions by treatment group. In addition, analyses of raw values and change from baseline at post-baseline timepoints and visits were performed using descriptive statistics. Baseline was the pre-dose assessment on day 1.

[3] = Plasma oxymetazoline pharmacokinetics after dermal administration; type: in vivo; conditions: human, topical or ocular, repeated dermal administration, once-daily or twice-daily, read-out: effective half-life (mean), range across groups
Procedure: Blood samples were drawn on days 1 and 28 at predose, 2, 4, 6, 8, 10, and 12 hours after the morning dose throughout the study. Additional trough samples were collected on days 2, 14, and 29. The final pharmacokinetic sample was collected on day 35 after all assessments were completed. Plasma was analyzed for oxymetazoline concentrations using a validated liquid chromatography-tandem mass spectrometry method with a lower limit of quantification of 10 pg/mL.
Noncompartmental analysis was performed to determine the maximum observed plasma concentration (Cmax), corresponding time to reach maximum observed plasma concentration (Tmax), area under the plasma concentration-time curve from time 0 to time t (AUC0-t), accumulation ratio (R0), and effective half-life (Teff) of oxymetazoline in plasma. These parameters were calculated, whenever possible. […]
At the selected timepoints, approximately 6 mL of blood was collected into prelabeled K2EDTA lavender top blood collection tubes and gently inverted at least 10 times to ensure adequate mixing of blood and anticoagulant. […] A minimum of 1.0 mL of the harvested plasma was transferred into 2 prelabeled cryovials and stored at −20° C. or below until analyzed. The samples were analyzed using a validated high performance liquid chromatography-tandem mass spectrometry (LC-MS/MS) method with a lower limit of quantitation (LLOQ) of 10 pg/mL. […]

[4] = all oxymetazoline-treated patients

## Cc1cc(C(C)(C)C)c(O)c(C)c1CC1=NCCN1 [Oxy, oxymetazoline hydrochloride]
[1]; BID
  Discontinued: Adverse Event: 6 (4.4) Number (%) of Patients
[1]; QD
  Discontinued: Adverse Event: 2 (1.5) Number (%) of Patients
[1]; all Oxy-treated patients
  patients who discontinued due to treatment-related application site adverse events: Seven and 7 patients
  patients with application site acne (TEAE): 1.50%
  patients with contact dermatitis (TEAE): 2.6%
[1]; all Oxy-treated patients, 7 severe events
  patients with severe treatment-related application site events: 3 patients
[1]; [4]
  patients who discontinued the study due to TEAEs: 8 patients
  patients with headache (TEAE): 4.9%
  patients with treatment-related application site adverse events: 28 patients
[1]; once-daily dosing
  patients with TEAEs: 33.8%
  patients with adverse events during the posttreatment period: 8.3%
  patients with adverse events during the treatment period: 28.6%
  patients with treatment-related TEAEs: 9.8%
[1]; once-daily group
  patients with discontinuation from the study due to adverse events: 1.5%
[1]; once-daily treatment groups
  patients who discontinued the study: 3.0%
[1]; twice-daily dosing
  patients with TEAEs: 32.6%
  patients with adverse events during the posttreatment period: 7.4%
  patients with adverse events during the treatment period: 26.7%
  patients with treatment-related TEAEs: 12.6%
[1]; twice-daily group
  patients who discontinued the study due to adverse events: 4.4%
[1]; twice-daily treatment groups
  patients who discontinued the study: 6.7%
[2]; once-daily, day 1
  patients with worsening of stinging/burning at the application site: 12.8%
[2]; once-daily, day 14
  patients with worsening of stinging/burning at the application site: 12.0%
[2]; once-daily, day 28
  patients with worsening of stinging/burning at the application site: 6.0%
[2]; twice-daily, day 1
  patients with worsening of stinging/burning at the application site: 10.4%
[2]; twice-daily, day 14
  patients with worsening of stinging/burning at the application site: 8.9%
[2]; twice-daily, day 28
  patients with worsening of stinging/burning at the application site: 1.5%
[3]
  half-life: 18 to 28 h

Reference: US9974773B2, “Stabilized oxymetazoline formulations and their uses” (Allergan, Inc., priority 2014, dated 2018)
